The target in the assay is Inward rectifier potassium channel 2 (Homo sapiens) (UniProt P63252). Description: Inhibition of Kir2.1 (unknown origin) by patch clamp method. For orientation: Patch clamp records ionic current or voltage across a cell membrane.

The structures appear in SMILES notation.

Sequence of Inward rectifier potassium channel 2 (Homo sapiens) (P63252 whole entry, looked up): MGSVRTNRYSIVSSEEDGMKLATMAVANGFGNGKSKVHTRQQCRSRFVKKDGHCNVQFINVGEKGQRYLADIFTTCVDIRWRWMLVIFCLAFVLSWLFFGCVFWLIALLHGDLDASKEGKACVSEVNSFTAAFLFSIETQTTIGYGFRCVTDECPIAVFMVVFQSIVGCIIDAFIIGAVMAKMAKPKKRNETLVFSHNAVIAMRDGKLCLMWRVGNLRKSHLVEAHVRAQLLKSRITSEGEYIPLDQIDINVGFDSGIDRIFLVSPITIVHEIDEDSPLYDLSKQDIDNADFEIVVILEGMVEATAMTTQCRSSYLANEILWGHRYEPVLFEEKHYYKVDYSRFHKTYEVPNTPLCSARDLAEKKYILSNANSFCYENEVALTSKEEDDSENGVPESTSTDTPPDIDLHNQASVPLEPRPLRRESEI

With `C[C@H](CC[C@](C)(O)C(F)(F)F)[C@H]1CC[C@H]2[C@@H]3CC=C4C[C@@](C)(O)CC[C@]4(C)[C@H]3CC[C@]12C` [Dalzanemdor], the IC50 was over 30 µM.

One may read the IC50 as the concentration at which inhibition is half-maximal. A higher IC50 goes with a need for much substance.

The record behind these values is BindingDB's records for PubMed 35785990 (Sage Therapeutics, 2022).
